Assay results taken from patent US4054734A, “Amphotericin complexes containing citric acid and calcium” (priority 1976, dated 1977).

Tests used:
[1] = solubility in methanol; format: physicochemical
Procedure: The complexes of the present invention are less soluble in methanol than amphotericin B. Forty mg of the complexes of the present invention are soluble in 750 ml of methanol, whereas 100 mg of amphotericin B are soluble in 750 ml of methanol.

[2] = solubility in methanol adjusted to pH 9.5 with triethylamine; format: physicochemical; details: pH adjusted to 9.5 with triethylamine

Row | Compound | extent of solubilization in methanol ([1]; 100 mg added to 750 ml of methanol) [%] | extent of solubility in methanol at pH 9.5 ([2]; 100 mg added to 80 ml of methanol) [%] | solubility in methanol (in words) ([1]; 100 mg in 750 ml of methanol) | amount soluble in methanol ([1]; in 750 ml of methanol) [mg] | solubility in methanol at pH 9.5 (in words) ([2]; 100 mg in 80 ml of methanol)
1 | Amphotericin B-Calcium-Oxalic Acid Complex [Example 1] | 40 | 35 |  |  | 
2 | C[C@@H]1[C@H](O)[C@@H](C)/C=C/C=C/C=C/C=C/C=C/C=C/C=C/[C@H](O[C@@H]2O[C@H](C)[C@@H](O)[C@H](N)[C@@H]2O)C[C@@H]2O[C@](O)(C[C@@H](O)C[C@@H](O)[C@H](O)CC[C@@H](O)C[C@@H](O)CC(=O)O[C@H]1C)C[C@H](O)[C@H]2C(=O)O [amphotericin B] |  |  | completely soluble | 100 | completely soluble
